Earlier results, collected in patent US20070148205A1, “Prevention of Arterial Restenosis with Active Vitamin D Compounds” (priority 2004, published 2007).

Conditions: in vivo

In the case of `C=C1/C(=C\C=C2/CCC[C@]3(C)C([C@H](C)CC#CC(C)(C)O)=CC[C@@H]23)C[C@@H](O)C[C@@H]1O` [Ro23-7553], the “Hypercalcemic effect compared to calcitriol, in words” value is listed as “reduced hypercalcemic effect”.
